Data on one compound can be found in patent US20240335539A1, “MODULATION OF BCL-2 TO ENHANCE CHIMERIC ANTIGEN RECEPTOR CANCER IMMUNOTHERAPY EFFICACY” (The Trustees of the University of Pennsylvania, priority 2021, published 2024).

Structures are written as SMILES. Like-named read-outs stand apart in the source and are kept apart here.

One data set has as its system CART19. Description: In vitro venetoclax CART cell toxicity assay. The data set is classed as cell-based, human. Conditions: for IC50: Homo sapiens. The protocol:
CART cells were combined with target cancer cells at an E:T ratio of 0.25:1, and co-cultures were evaluated for absolute count of T cells and cancer cells by flow cytometry using CountBright absolute counting beads (ThermoFisher) every three days. Cultures were maintained at a concentration of 1×10^6 total cells/mL. To monitor their differentiation status, CART cells were harvested on day 0, 9, and 18. Next, CART cells were stained with anti-CCR7 and anti-CD45RA antibodies for flow cytometric analysis. CART cells were re-stimulated by PMA/Ionomycin on day 18 after initial stimulation in order to evaluate the anti-tumor activity of long-survived CART cells.
To investigate this hypothesis, the expansion and persistence of CART19 cells in the peripheral blood of NSG mice treated with CART19 plus venetoclax or CART19 alone was analyzed using flow cytometry. […] To test whether prolonged exposure to venetoclax leads to CART cell toxicity, an in vitro venetoclax toxicity assay was performed using CART cells manufactured from 8 different T cell donors. […] Of note, the level of toxicity to CART cells varied among the different T cell donors, likely due to different apoptotic priming statuses at baseline. […] In order to discern whether the reduced survival was due to increased apoptosis or reduction of proliferation, the caspase 3/7 activity in CART19 was assessed in the presence or absence of venetoclax. […] Overall, these studies indicate that the higher doses of venetoclax required to suppress neoplasms with venetoclax resistance can cause apoptosis in CART19 cells. However, the BCL-2 pathway is a critical node for cancer resistance to CART immunotherapy and venetoclax can be toxic to CART cells. Thus, a different approach to overcome the limitation of targeting BCL-2 combined with CART immunotherapy was needed.
Correct expression of the transgenes in target cells was confirmed by intracellular staining for CAR19 and BCL-2 using flow cytometry (FIG. 10B). […] Additionally, venetoclax CART cell toxicity assays were performed to evaluate whether the mutant BCL-2 could provide resistance to venetoclax.

Data set [1] relates to NALM6. Description: NALM6 xenograft model. The format is in vivo. The conditions noted are these: CART19 with or without venetoclax 100 mg/kg daily, oral gavage for five weeks. As to the method: Either venetoclax (100 mg/kg) or vehicle were administered to the mice via oral gavage daily. To monitor the survival of CART in vivo, mouse blood ([…]) was collected from submandibular vein of mouse on day 15 after CART infusion and measured the absolute number of human CD3+ T cells in mouse blood using flow cytometry. Tumor volume was monitored by measuring luminescen intensity in mouse by IVIS system. […] One-way ANOVA with post-hoc Tukey test was performed. […] All data represent mean±SD. *P<0.05. ns: not significant. UTD: untransduced T cell. CART19: anti-CD19 CAR T cell. CART19-BCL2(WT): BCL-2(WT) overexpressing anti-CD19 CAR T cell.
All data represent mean±SD.
To investigate this hypothesis, the expansion and persistence of CART19 cells in the peripheral blood of NSG mice treated with CART19 plus venetoclax or CART19 alone was analyzed using flow cytometry. […] To test whether prolonged exposure to venetoclax leads to CART cell toxicity, an in vitro venetoclax toxicity assay was performed using CART cells manufactured from 8 different T cell donors. […] In order to discern whether the reduced survival was due to increased apoptosis or reduction of proliferation, the caspase 3/7 activity in CART19 was assessed in the presence or absence of venetoclax. […]

Data set [2] deals with NALM6. Description: Venetoclax-mediated killing, bioluminescence cytotoxicity assay, 48 hours. The data set is classed as cell-based. Conditions: Homo sapiens, NALM-6, read-out: half-maximal inhibitory concentration (IC50). As to the method:
(§1) FIGS. 2A-2F illustrate the finding that venetoclax and CART19 as a single agent induces concentration- and dose-dependent tumor killing. Luciferase-expressing cancer cells (5×10^4 cells/well) were co-cultured with either various concentrations of venetoclax or different doses of CART19 for 48 hours and luminescence was used to quantify the tumor killing. After 48 hours, luciferin was added to the cells and luminescence was detected using a luminometer (Biotek Synergy H4). Tumor killing (%) was calculated using the formula: (sample−maximal tumor growth)/(lysis control−maximal tumor growth)×100. […] E:T=ratio of effector to target. EC50: Half-maximal effective concentration. CART19: anti-CD19 CAR T cell.
(§2) Cell lines (MINO, Z-138, MAVER, OCI-Ly18, SU-DHL-4, NALM6, MOLM-14 and KG-1) were engineered to express click beetle green, and cell survival was measured using bioluminescence quantification. D-luciferin potassium salt (Perkin-Elmer) was added to cell cultures (final concentration 15 μg/mL) and incubated at 37° C. for 10 minutes. Bioluminescence signal was detected using a BioTek Synergy H4 imager, and signal was analyzed using BioTek Gen5 software. Percent specific lysis was calculated using a control of target cells without effectors. Cytotoxicity assays were established as previously described (Singh, et al., Cancer Discovery 2020; 10(4):552-67) with the addition of vehicle or venetoclax.
(§3) CART19 cells were co-cultured with either vehicle (DMSO) or venetoclax and cytotoxicity was measured at 48 hours. […] This effect was further confirmed using primary NHL cells (MCL) (FIG. 1D). […] Furthermore, to confirm the importance of the BCL-2 pathway in resistance to CART killing, overexpression of BCL-2 was induced in B-cell lymphoma and leukemia cell lines (MINO, SU-DHL-4, and NALM-6) that lack genetic alterations of BCL-2. BCL-2 overexpression led to a significant reduction of tumor killing by CART cell in all models, in particular the venetoclax medium sensitive model (MINO) (FIGS. 4A-4C).

The test system of another data set is MINO. The data set is described as above. The format is cell-based. As to the method:
as §1, §2, §3

The next data set concerns OCI-Ly18. The description is as above. The format is cell-based. The conditions noted are these: Homo sapiens, read-out: half-maximal inhibitory concentration (IC50). As to the method: as §1, §2, §3

Take `CC1(C)CCC(CN2CCN(c3ccc(C(=O)NS(=O)(=O)c4ccc(NCC5CCOCC5)c([N+](=O)[O-])c4)c(Oc4cnc5[nH]ccc5c4)c3)CC2)=C(c2ccc(Cl)cc2)C1` [venetoclax]: the “Survival of CART19 cells” value in the data set on CART19 (5 days of co-culture, CART cells from 8 donors) is listed as “significant reduction in the survival of CART19 cells”. For the same compound, the IC50 in the data set on CART19 (healthy donor-derived CAR T cell, read-out: average value of the IC50 concentration) stood at 600 nM; in the data set with CART19 (venetoclax on CART19, long-term in vitro assay, n=3 donors, read-out: average IC50 value (CART cell survival)) it was 131 nM; in the data set on NALM6 [2], 1300 nM; in the data set with MINO (Homo sapiens, MINO, 48 hours, read-out: half-maximal inhibitory concentration (IC50)), 68.2 nM; in the data set with OCI-Ly18, 18.5 nM. The “Caspase 3/7 activation in CART cells” value with CART19 (venetoclax present vs absent) is “significant caspase 3/7 activation in CART cells”. The “Mice showing tumor relapse” value in the data set on NALM6 [1] was 40%. Moreover, the “IC50 for MINO relative to OCI-Ly18” value with MINO (MINO vs OCI-Ly18) is 5 fold.
